From US20100298377A1, “NOVEL SUBSTITUTED INDAZOLES, THE PREPARATION THEREOF AND USE OF SAME IN THERAPEUTICS” (SANOFI-AVENTIS, priority 2007, published 2010) come the findings set out here.

The target of test [1] is AKT1 (Homo sapiens, UniProt P31749, S473D). Kind of test: Determination of the IC50 for AKT1 (HTRF). The test is classed as biochemical. As to conditions: AKT1 without PH domain, activated by PDK1. The procedure, abridged:
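HTRF assay of AKT1 (S473D) kinase activity on a biotinylated peptide substrate, with 100 μM ATP and 10 μM peptide in the initiating solution.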

The test system of test [2] is MIA PaCa-2 cells (human pancreatic carcinoma cells). The experiment in a line: Proliferation of MIA PaCa-2 cells, intracellular ATP, CellTiter-Glo test. The class given is cell-based. To be noted: 96 hours. An excerpt:
b. Study of the Proliferation of Human Tumoral MIA PaCa-2, C-433, LnCaP and MCF7 Cells via Assay of the Intracellular ATP Using the Celltiter-Glo™ Test
The kit CellTiter-Glo™ for measuring cell viability via luminescence ([…]) is a homogeneous method for determining the number of viable cells in culture, based on quantification of the ATP present in the cells, and which indicates the presence of metabolically active cells.
The cell lines used in this test were the following: MIA PaCa-2 cells (human pancreatic carcinoma cells, ATCC, CRL-1420), C-433 cells (human Ewing sarcoma cells, DSMZ, ACC 268), LNCaP clone FGC cells (human prostate carcinoma cells, ATCC, CRL-1740), MCF7 cells (human breast carcinoma cells, ECACC, #86012803). The cells MIAPaCa-2 and LNCaP were cultured in D-MEM culture medium (Invitrogen Gibco, #419656-039) containing 10% foetal calf serum (FCS, Invitrogen Gibco, #10500-064) and 2 mM L-Glutamine (Invitrogen Gibco, #25030-024); the C-433 cells were cultured in MCCoy's 5A culture medium (Invitrogen Gibco, #26600-023)/RPMI 1640 (Invitrogen Gibco, #31870-025) (50/50) containing 10% FCS and 2 mM L-glutamine; the MCF7 cells were cultured in EMEM culture medium (EMEM, Biowhittaker, Lonza, #BE12-662F) containing 10% FCS and 2 mM L-Glutamine.
Evaluation of the Cell Viability via Luminescence Measurement: Celltiter-Glo™ Test
On day 1, the cells were inoculated at 1000 (C-433), 2500 (MCF7) and 10000 (LNCaP and MIA PaCa-2) cells per well in black-bottomed 96-well microplates (NUNC fluoronunc, Fisherbioblock 2311K) in 135 μl of whole culture medium and incubated at 37° C., 5% CO2, for 3 to 6 hours. The cells were then incubated with increasing concentrations of molecules diluted in dimethyl sulfoxide (DMSO, Sigma D2650). The molecules were added in a volume of 15 μl of a 10-fold concentrated solution in a final volume of 150 μl, the final percentage of DMSO being 0.1%. The cells were incubated at 37° C., 5% CO2, for 96 hours. After 4 days of treatment with the molecules, the CellTiter-Glo™ was performed by following the manufacturer's instructions (Kit Celltiter-Glo Luminescent, PROMEGA #G7571). Briefly, the cell plates were equilibrated for about 30 minutes at RT and 100 μl per well of Celltiter-Glo reagent were added. The cells were incubated for 1 hour at RT for lysis of the cells and stabilization of the signal. The intracellular ATP was quantified by measuring the luminescence in rlu units (relative luminescence units), 96 hours after initiation of the treatment, using a luminescence counter (Wallac). The tests were performed in six replicates.
i) the mean±s.e.m. of each series of well replicates was calculated;
ii) the maximum response is given by positive control wells containing untreated cells; this control was performed in 12 replicates;
iii) the minimum response is given by cell-free and untreated negative control wells; this control was performed in 6 replicates;
iv) using these maximum (100%) and minimum (0%) response values, respectively, the data were normalized to give a percentage relative to the maximum response;
The IC50 values were calculated by […] with the XLfit software (IDBS, UK) using formula 205.
For orientation: ATP-based viability assays read luminescence as a measure of living cells.

A value given as a limit tells only on which side of the number the result lay.

Chain of AKT1 (P31749 118-480 S473D limits assumed): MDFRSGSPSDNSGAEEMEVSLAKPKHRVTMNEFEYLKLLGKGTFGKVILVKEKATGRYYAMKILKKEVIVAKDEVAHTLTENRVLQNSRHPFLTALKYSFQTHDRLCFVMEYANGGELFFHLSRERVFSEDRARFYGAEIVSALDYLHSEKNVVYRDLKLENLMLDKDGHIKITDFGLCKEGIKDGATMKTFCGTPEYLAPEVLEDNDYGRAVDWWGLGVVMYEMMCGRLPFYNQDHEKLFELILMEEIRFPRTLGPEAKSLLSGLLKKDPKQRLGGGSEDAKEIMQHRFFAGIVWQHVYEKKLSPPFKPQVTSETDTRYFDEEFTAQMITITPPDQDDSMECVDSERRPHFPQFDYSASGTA

The term IC50 denotes the concentration needed to halve the response being measured. Take `O=C(Nc1ccc2[nH]ncc2c1)N[C@@H](c1cc(F)cc(Cl)c1)[C@@H]1CCCCN1` [Ex 3, 1-{(S)-(3-Chloro-5-fluorophenyl)[(2S)-piperid-2-yl]methyl}-3-(1H-indazol-5-yl)urea]: the IC50 in test [1] was less than 0.1 µM; in test [2], 10 µM.

With `O=C(Nc1ccc2[nH]ncc2c1)N[C@@H](c1ccc(Cl)c(Cl)c1)[C@@H]1CCCCN1` [Ex 4, 1-{(S)-(3,4-Dichlorophenyl)[(2S)-piperid-2-yl]methyl}-3-(1H-indazol-5-yl)urea], the IC50 in test [1] was less than 0.1 µM; in test [2], 3.42 µM.

With `O=C(Nc1ccc2[nH]ncc2c1)NC(c1cc(F)cc(Cl)c1)C1CCCCN1` (stereo not shown) [Ex 5, 1-[(3-Chloro-5-fluorophenyl)(piperid-2-yl)methyl]-3-(1H-indazol-5-yl)urea], the half-inhibitory concentration (IC50) in test [1] was less than 0.1 µM; in test [2], 7.1 µM.

On to `CN1CCCCC1C(NC(=O)Nc1ccc2[nH]ncc2c1)c1cc(F)cc(Cl)c1` (stereo not shown) [Ex 11, 1-[(3-Chloro-5-fluorophenyl)(1-methylpiperid-2-yl)methyl]-3-(1H-indazol-5-yl)urea], for which the IC50 in test [1] was less than 0.1 µM; in test [2], greater than 10 µM.

Take `CN1CCCCC1C(NC(=O)Nc1ccc2[nH]nc(-c3ccncc3)c2c1)c1ccccc1` [Ex 13, 1-[(1-Methylpiperid-2-yl)(phenyl)methyl]-3-(3-pyrid-4-yl-1H-indazol-5-yl)urea((S,2S),(R,2R))]: the values for the IC50 in test [1] and in test [2] were 0.1 to 0.5 µM and 1.45 µM, respectively.

For `Cc1n[nH]c2ccc(NC(=O)NC(c3ccccc3)C3CCCCN3C)cc12` [Ex 18, 3-Methyl-5-({[(1-methylpiperid-2-yl)(phenyl)methyl]carbamoyl}amino)-1H-indazole ((S,2S),(R,2R))], the values for the IC50 in test [1] and in test [2] were less than 0.1 µM and 6.1 µM, respectively.

In turn, `CN1CCCCC1C(NC(=O)Nc1cc(F)c2[nH]ncc2c1)c1ccccc1` [Ex 21, 1-(7-Fluoro-1H-indazol-5-yl)-3-[(1-methylpiperid-2-yl)(phenyl)methyl]urea((S,2S),(R,2R))] yielded an IC50 in test [1] of 0.1 to 0.5 µM.

On to `CN1CCCCC1C(NC(=O)Nc1ccc2[nH]nc(C#Cc3ccc(F)cc3)c2c1)c1ccccc1` [Ex 24, 1-{3-[(4-Fluorophenyl)ethynyl]-1H-indazol-5-yl}-3-[(1-methylpiperid-2-yl)(phenyl)methyl]urea((S,2S),(R,2R))], for which the values for the IC50 in test [1] and in test [2] were less than 0.1 µM and 1.3 µM, respectively.

With `CN1CCCCC1C(NC(=O)Nc1ccc2[nH]nc(C#Cc3cccnc3)c2c1)c1ccccc1` [Ex 25, 1-[(1-Methylpiperid-2-yl)(phenyl)methyl]-3-[3-(pyrid-3-ylethynyl)-1H-indazol-5-yl]urea((S,2S),(R,2R))], the IC50 in test [1] is less than 0.1 µM.

`S=C(Nc1ccc2[nH]ncc2c1)N[C@@H](c1ccc(Cl)c(Cl)c1)[C@@H]1CCCCN1` [Ex 31, 1-{(S)-(3,4-Dichlorophenyl)[(2S)-piperid-2-yl]methyl}-3-(1H-indazol-5-yl)thiourea]: the IC50 in test [1] was less than 0.1 µM; in test [2], 6.25 µM.

Consider `O=C(Nc1ccc2[nH]ncc2c1)OC(c1cc(Cl)cc(Cl)c1)C1CCCCN1` [Ex 34, (3,5-Dichlorophenyl)[piperid-2-yl]methyl 1H-indazol-5-ylcarbamate((S,2S),(R,2R))], for which the figures for the IC50 in test [1] and in test [2] were less than 0.1 µM and 2.91 µM, respectively.

On to `O=C(Nc1ccc2[nH]ncc2c1)O[C@@H](c1cc(F)cc(Cl)c1)[C@@H]1CCCCN1` [Ex 35, (S)-(3-Chloro-5-fluorophenyl)[(2S)-piperid-2-yl]methyl 1H-indazol-5-ylcarbamate], for which the IC50 in test [1] is less than 0.1 µM; in test [2], 3.1 µM.

Regarding `CN1CCCCC1C(OC(=O)Nc1ccc2[nH]ncc2c1)c1cc(F)cc(Cl)c1` (stereo not shown) [Ex 36, (3-Chloro-5-fluorophenyl)(1-methylpiperid-2-yl)methyl 1H-indazol-5-ylcarbamate], the figures for the IC50 in test [1] and in test [2] were less than 0.1 µM and 10 µM, respectively.

Turning to `O=C(Nc1ccc2[nH]ncc2c1)O[C@H](c1ccc(Cl)c(Cl)c1)[C@H]1CCCCN1` [Ex 37, (R)-(3,4-Dichlorophenyl)[(2R)-piperid-2-yl]methyl 1H-indazol-5-ylcarbamate], the half-inhibitory concentration (IC50) is less than 0.1 µM in test [1] and 2.45 µM in test [2].

`O=C(Nc1ccc2[nH]ncc2c1)O[C@@H](c1ccc(Cl)c(Cl)c1)[C@@H]1CCCCN1` [Ex 38b, (S)-(3,4-Dichlorophenyl)[(2S)-piperid-2-yl]methyl 1H-indazol-5-ylcarbamate]: the IC50 in test [1] was less than 0.1 µM.

`O=C(Nc1ccc2[nH]ncc2c1)O[C@@H](c1cccc(Br)c1)[C@@H]1CCCCN1` [Ex 46] showed an IC50 in test [1] of less than 0.1 µM.
